Patent US20100168038A1, “USE OF COMPOUNDS IN COMBINATION WITH GAMMA-IRRADIATION FOR THE TREATMENT OF CANCER” (priority 2006, published 2010)
“And” between values parts separate entries of the source, which are not always exact repeats. Equal values may be shown once. Residues, ends and D or L forms follow the SMILES beside them.

Target: T1, TPP II (Mus musculus, UniProt Q64514)
T1 construct: 1 ug of high molecular weight protein was used as enzyme in peptidase assays; endogenous in cells
Assay: TPP II peptidase assay: cleavage of fluorogenic substrate AAF-AMC by enriched TPP II
Assay type: biochemical
Conditions: for cleavage of AAF-AMC in presence of compound, mean: mean of 3 readings; for cleavage of AAF-AMC in presence of compound: single reading
Procedure: In one non-limiting example of purification of TPP II, 100×10^6 cells (such as EL-4 cells) were sedimented and lysed by vortexing in glass beads and homogenisation buffer (50 mM Tris Base pH 7.5, 250 mM Sucrose, 5 mM MgCl2, 1 mM DTT). Cellular lysates were subjected to differential centrifugation; first the cellular homogenate was centrifuged at 14,000 rpm for 15 min, and then the supernatant was transferred to ultra-centrifugation tubes. Next the sample was ultra-centrifugated at 100,000×g for 1 hour, and the supernatant (denoted as cytosol in most biochemical literature) was subjected to 100,000×g centrifugation for 5 hours, which sedimented high molecular weight cytosolic proteins/protein complexes. The resulting pellet dissolved in 50 mM Tris Base pH 7.5, 30% Glycerol, 5 mM MgCl2, and 1 mM DTT, and 1 ug of high molecular weight protein was used as enzyme in peptidase assays.
It is possible to test the activity of TPP II using for example the substrate AAF-AMC (Sigma, St. Louis, Mo.). This may for example be used at 100 uM concentration in 100 ul of test buffer composed of 50 mM Tri Base pH 7.5, 5 mM MgCl2 and 1 mM DTT. It is possible to stop reactions using dilution with 900 ul 1% SDS solution. Cleavage activity may be measured for example by emission at 460 nm in a LS50B Luminescence Spectrometer (Perkin Elmer, Boston, Mass.).
Protein Purification, Peptidase Assays and Analysis of DNA Fragmentation. 100×10^6 cells were sedimented and lysed by vortexing in glass beads and homogenisation buffer (50 mM Tris Base pH 7.5, 250 mM Sucrose, 5 mM MgCl2, 1 mM DTT). Cellular lysates were submitted to differential centrifugation where a supernatant from a 1 hour centrifugation at 100,000×g (cytosol) was submitted to 100,000×g centrifugation for 3-5 hours, which sedimented high molecular weight cytosolic proteins/protein complexes. The resulting pellet dissolved in 50 mM Tris Base pH 7.5, 30% Glycerol, 5 mM MgCl2, and 1 mM DTT, and 1 micro-g of high molecular weight protein was used as enzyme in peptidase assays or in Western blotting for TPP II expression. To test the activity of TPP II we used the substrate AAF-AMC (Sigma, St. Louis, Mo.), at 100 micro-M concentration in 100 micro-l of test buffer composed of 50 mM Tri Base pH 7.5, 5 mM MgCl2 and 1 mM DTT. Cleavage activity was measured by emission at 460 nm in a LS50B Luminescence Spectrometer (Perkin Elmer, Boston, Mass.). For analysis of DNA fragmentation cells were seeded in 12-well plates at 10^6 cells/ml and exposed to 25 micro-M etoposide, a DNA topoisomerase II inhibitor commonly used as an apoptosis-inducing agent, to starvation (50% PBS). Cells were seeded at 10^6 cells/ml in 12-well plates and incubated for the indicated times, usually 18-24 hours. DNA from EL-4 control and adapted cells was purified by standard chloroform extraction, and 2.5 micro-g of DNA was loaded on 1.8% agarose gel for detection of DNA from apoptotic cells.
TPP II protein was enriched, and then a TPP II-preferred fluorogenic substrate AAF-AMC was used. 100×10^6 cells were sedimented and lysed by vortexing in glass beads and homogenisation buffer (50 mM Tris Base pH 7.5, 250 mM Sucrose, 5 mM MgCl2, 1 mM DTT). Cellular lysates were subjected to differential centrifugation; first the cellular homogenate was centrifuged at 14,000 rpm for 15 min, and then the supernatant was transferred to ultra-centrifugation tubes. Next the sample was ultra-centrifugated at 100,000×g for 1 hour, and the supernatant (denoted as cytosol in most biochemical literature) was subjected to 100,000×g centrifugation for 5 hours, which sedimented high molecular weight cytosolic proteins/protein complexes.

T1 sequence (Q64514 2-1262 limits assumed): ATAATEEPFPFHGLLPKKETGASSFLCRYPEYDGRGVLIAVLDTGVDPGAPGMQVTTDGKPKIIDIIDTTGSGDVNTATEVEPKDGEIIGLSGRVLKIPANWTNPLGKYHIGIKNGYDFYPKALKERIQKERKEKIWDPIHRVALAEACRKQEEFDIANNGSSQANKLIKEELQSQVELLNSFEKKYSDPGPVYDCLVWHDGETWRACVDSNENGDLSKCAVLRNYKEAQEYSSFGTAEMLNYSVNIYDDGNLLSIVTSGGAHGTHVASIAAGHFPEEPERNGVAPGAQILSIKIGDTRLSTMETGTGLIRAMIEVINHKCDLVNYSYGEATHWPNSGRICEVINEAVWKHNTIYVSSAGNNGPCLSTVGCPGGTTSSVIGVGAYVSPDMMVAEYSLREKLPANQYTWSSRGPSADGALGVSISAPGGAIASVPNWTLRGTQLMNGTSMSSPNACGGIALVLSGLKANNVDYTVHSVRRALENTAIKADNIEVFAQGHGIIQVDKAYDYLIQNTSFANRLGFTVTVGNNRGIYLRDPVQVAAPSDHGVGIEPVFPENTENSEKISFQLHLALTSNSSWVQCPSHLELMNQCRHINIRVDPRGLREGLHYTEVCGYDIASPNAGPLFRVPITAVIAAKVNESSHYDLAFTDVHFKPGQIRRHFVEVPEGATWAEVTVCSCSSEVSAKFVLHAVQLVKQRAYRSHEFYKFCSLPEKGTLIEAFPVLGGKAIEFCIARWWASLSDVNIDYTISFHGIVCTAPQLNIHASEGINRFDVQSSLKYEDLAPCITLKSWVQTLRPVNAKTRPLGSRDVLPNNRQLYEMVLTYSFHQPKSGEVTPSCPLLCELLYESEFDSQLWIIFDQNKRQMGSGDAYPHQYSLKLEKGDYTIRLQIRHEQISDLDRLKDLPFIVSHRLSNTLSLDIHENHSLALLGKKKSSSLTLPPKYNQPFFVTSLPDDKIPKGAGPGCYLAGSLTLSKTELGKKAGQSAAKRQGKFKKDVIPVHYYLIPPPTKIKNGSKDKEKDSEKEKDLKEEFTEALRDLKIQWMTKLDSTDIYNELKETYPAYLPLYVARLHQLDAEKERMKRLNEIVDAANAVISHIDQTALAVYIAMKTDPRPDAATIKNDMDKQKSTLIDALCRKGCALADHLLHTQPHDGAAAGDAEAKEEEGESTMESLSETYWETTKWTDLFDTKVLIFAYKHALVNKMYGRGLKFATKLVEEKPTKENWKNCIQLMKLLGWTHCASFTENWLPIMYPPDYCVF

`CC(C)C[C@H](NC(=O)CNC(=O)OCc1ccccc1)C(=O)N[C@@H](C)C(=O)O` [Z-GLA-OH, Z-Gly-Leu-Ala-OH] (HELM PEPTIDE1{[O=C(OCc1ccccc1)[*:2]].G.L.A}$$$$V2.0) was tested. Which “TPPII inhibition, in words” value did it give?
Its value is “efficiently inhibited TPPII”.

What about the “cleavage of AAF-AMC in presence of compound, mean” value (“cleavage of AAF-AMC … mean” for short) (compound 1 nM) of the same compound?
The value was 32.85 fluorometric units.

And the “cleavage of AAF-AMC in presence of compound” value (compound 1 nM)?
Its value is 32.54 fluorometric units and 32.61 fluorometric units and 33.41 fluorometric units.

What about the “cleavage of AAF-AMC … mean” value (compound 10 nM) of the same compound?
The value was 22.70 fluorometric units.

And the “cleavage of AAF-AMC in presence of compound” value (compound 10 nM)?
The value was 21.74 fluorometric units and 21.93 fluorometric units and 24.44 fluorometric units.

What about the “cleavage of AAF-AMC … mean” value (compound 100 nM) of the same compound?
Its value is 14.35 fluorometric units.

What about the “cleavage of AAF-AMC in presence of compound” value (compound 100 nM) of the same compound?
Its value is 14.43 fluorometric units and 14.26 fluorometric units and 14.37 fluorometric units.

What about the “cleavage of AAF-AMC … mean” value (compound 1 uM) of the same compound?
The value was 11.60 fluorometric units.

And the “cleavage of AAF-AMC in presence of compound” value (compound 1 uM)?
Its value is 11.43 fluorometric units and 11.9 fluorometric units and 11.46 fluorometric units.

What about the “cleavage of AAF-AMC … mean” value (compound 10 uM) of the same compound?
The value was 7.21 fluorometric units.

What about the “cleavage of AAF-AMC in presence of compound” value (compound 10 uM) of the same compound?
The value was 6.47 fluorometric units and 7.66 fluorometric units and 7.49 fluorometric units.

And the “cleavage of AAF-AMC … mean” value (compound 100 uM)?
Its value is 1.38 fluorometric units.

And the “cleavage of AAF-AMC in presence of compound” value (compound 100 uM)?
The value was 1.14 fluorometric units and 1.44 fluorometric units and 1.55 fluorometric units.

And the Ki (partially purified TPPII enzyme, fluorimetry, read-out: Ki50, inhibited TPPII cleavage of the substrate AAF-AMC)?
Its Ki is about 10 nM.
